Experimental data published in a melting point compilation (Tetko et al.; mined from patent text by program, amines drawn as free bases though some values may be those of a salt).

First: CC(=O)Oc1ccc(CN/C=C2\C(=O)NC(=O)c3ccccc32)cc1OC(C)=O
Second: CC(C)(C)NCc1ccc(COc2cccc3c2CN(C2CCC(=O)NC2=O)C3=O)cc1 (stereo not given)
The melting point of the first is lower: 184 to 186 °C for the first, 194 to 196 °C for the second.

First: CCNC(=O)c1ccnc([N+](=O)[O-])c1
Second: CCOC(=O)C(C(=O)OCC)c1cc(OC)ccc1[N+](=O)[O-]
The melting point of the first is lower: 65 to 67 °C for the first, 92 to 93 °C for the second.

Compared with `Cc1nc(-c2cc(C)c(OCCCc3cnc(C)s3)c(C)c2)no1`, `COc1cc(-c2nc(-n3c(C)ccc3C)sc2SCC2CCCCC2)c(OC)cc1C` is higher in melting point: 60 to 62 °C for the first, 117 to 118 °C for the second.

Going from `CSc1cc(C)nc(O)n1` to `Cc1ccnc(NC#N)n1`, the melting point rises from 165 °C to 203 °C.

First: CNC(=O)c1ccc(-c2coc3ccc(-c4nnc(C)o4)cc23)cc1F
Second: CCc1nc(Cl)c(C(=O)NC)n1Cc1ccc2oc(-c3ccccc3N)c(Br)c2c1
The melting point of the first is higher: 183 to 184 °C for the first, 68 to 70 °C for the second.

First: CCc1nnc2c(OC)nc3cc(OC)ccc3n12
Second: CCOCc1nc2c(N)nc3ccc(N4CCOC4=O)cc3c2n1CC(C)(C)O
The melting point of the first is lower: 184 to 188 °C for the first, 207 to 210 °C for the second.

First: NCC(=O)NCC(=O)Nc1ccc([N+](=O)[O-])cc1C(=O)c1ccccc1
Second: COc1ccc2cc(C(=O)CCC(=O)c3ccccc3)ccc2c1
The melting point of the first is lower: 121 to 123 °C for the first, 164 °C for the second.

Compared with `CCCc1nn(-c2ccc(C(F)(F)F)cn2)cc1CCCOc1ccc(OC)c(CC(=O)O)c1`, `Cn1ncnc1COc1nn2c(-c3ccccc3F)nncc2c1-c1cccc(C(F)(F)F)c1` is higher in melting point: 135 to 136 °C for the first, 152 to 155 °C for the second.

First: CCOC(=O)CON(CC)C(=S)Nc1ccc(Cl)cc1C
Second: CCOC(=O)CN1C(=O)C(=Cc2ccccc2)SC1=S
The melting point of the first is lower: 69 to 71 °C for the first, 122 to 125 °C for the second.

Compared with `CC(O)C=CS(C)(=O)=O` (stereo not given), `CC(C)COP(C)(=O)CC(O)CN1C(=O)c2ccccc2C1=O` (stereo not given) is higher in melting point: 70 to 72 °C for the first, 110 to 113 °C for the second.

First: COc1ccccc1N1CCN(CCn2c(=O)[nH]c3ccsc3c2=O)CC1
Second: Cc1nc2scc(C)n2c(=O)c1CCN1CCC(Nc2nc3ccccc3n2Cc2ccc(F)cc2)CC1
The melting point of the first is higher: 222 to 223 °C for the first, 141 °C for the second.

First: O=c1c2ncn(COCCO)c2nc2[nH]c(-c3ccc(Cl)s3)cn12
Second: CCCOc1ccc(/C=C/c2nc3c([nH]2)c(=O)n(CCC)c(=O)n3CCC)cc1
The melting point of the first is lower: 226 to 228 °C for the first, 248 to 249 °C for the second.

First: O=C(C1CCC(Nc2nccc(-n3nnc4c(-c5ccoc5)cccc43)n2)CC1)N1CCC(O)CC1 (stereo not given)
Second: O=C(CNc1ccc2[nH]ncc2c1)N1CCC(Cc2ccccc2)CC1
The melting point of the first is higher: 243 to 244 °C for the first, 42 to 47 °C for the second.

First: CCN(c1ccc(N2CCN(c3ccc(OC)cc3)CC2)cc1)c1nc(-c2ccccc2)cs1
Second: O=C(C#Cc1ccc(CCN2CCCC2)cc1)Nc1ccc(-c2ccccc2)cc1
The melting point of the first is higher: 224 °C for the first, 180 to 189 °C for the second.

First: CCC1(CC)CC(c2ccc(OC)c(OC)c2)=NN(C2CCN(C(=O)c3ccccc3OC)CC2)C1=O
Second: COc1cccc(-c2ccc3c(c2)CC[C@H]2N(C)C(=O)CC[C@]32C)c1
The melting point of the first is higher: 160 to 162 °C for the first, 140 °C for the second.

First: Nc1cccc(OCc2csc(-c3ccccc3)n2)c1
Second: COc1cccc2c(Nc3ccccc3C)nccc12
The melting point of the first is lower: 75 to 80 °C for the first, 111 to 112 °C for the second.

Compared with `Cc1ccc([N+](=O)[O-])c(O)c1CCC(C)Br` (stereo not given), `O=[N+]([O-])c1cc(-c2cnc3ccccn23)cc(O)c1O` is higher in melting point: 67 to 69 °C for the first, 110 °C for the second.

First: Cc1nc(-c2ccc(C#N)cc2)sc1C(=O)N[C@H](C)[C@](O)(Cn1ccnc1)c1ccc(F)cc1F
Second: N#Cc1cc(Cc2ccc(F)cc2)ccc1N
The melting point of the first is higher: 126 to 128 °C for the first, 105 to 107 °C for the second.

First: O[C@H](COc1cccc2[nH]ccc12)CN1CCC(c2c[nH]c3c(Cl)cccc23)CC1
Second: CC(=O)c1ccc(OCc2ccccc2)c(OC/C=C/CN2CCC(c3noc4cc(F)ccc34)CC2)c1
The melting point of the first is higher: 186 to 189 °C for the first, 124 to 125 °C for the second.

First: CC(c1oc2ccccc2c(=O)c1-c1cccc(F)c1)n1nc(-c2ccc(CN)s2)c2c(N)ncnc21 (stereo not given)
Second: CC(c1oc2ccccc2c(=O)c1-c1cccc(F)c1)n1nc(C#CCO)c2c(N)ncnc21 (stereo not given)
The melting point of the first is higher: 275 to 278 °C for the first, 171 to 173 °C for the second.

First: c1ccc(C2CC(n3cncn3)c3ccccc3N2)cc1 (stereo not given)
Second: C=C(CS(=O)(=O)c1ccccc1)c1ccccc1
The melting point of the first is higher: 162 to 164 °C for the first, 105 °C for the second.

Compared with `CC(C)(C)c1csc(NC(=O)c2ccn3c(=O)c(/C=C/C(=O)O)c(N4CCCC(CC(=O)NCCO)C4)nc3c2)n1` (stereo not given), `COc1ccc(Cl)cc1C(=O)NCCC1CCN(S(=O)(=O)NC(=S)NC(C)C)CC1` is lower in melting point: 167 to 175 °C for the first, 145 to 147 °C for the second.

First: O=c1c(O)c(-c2ccoc2)oc2ccccc12
Second: CC(c1ccccc1)n1ncc(-c2nc(-c3ccco3)n[nH]2)c1N (stereo not given)
The melting point of the first is lower: 165 to 166 °C for the first, 175 to 176 °C for the second.

Compared with `CN(C)CCCC#Cc1cnc(N)nc1`, `Cc1ncc(CN)c(N)n1` is higher in melting point: 126 to 127 °C for the first, 155 °C for the second.

`CC(=O)OCc1cc(C)cc(Oc2nc(Cl)nc(Cl)c2C(C)C)c1` and `CCCC=Cc1c(C(C)C)nc(C(C)C)c(CO)c1-c1ccccc1C` cannot be ordered by melting point: 76 to 77 °C for the first, 76 to 79 °C for the second.

First: CCCCCCCCC=CCCCCCCCC(=O)Cl
Second: CCCCCC(=O)C=CI
The melting point of the first is higher: 73 to 74 °C for the first, 35 to 37 °C for the second.

First: CN1C(=O)Cc2cc(Cl)ccc21
Second: Cn1c(-c2ccc(Cl)cc2)c(C#N)c(Br)c1C(F)(F)F
The melting point of the first is lower: 118 to 119 °C for the first, 126 to 129 °C for the second.

Compared with `CN(Cc1cccc2c1C(=O)N(C1CCC(=O)NC1=O)C2=O)C(=O)NC(C)(C)C` (stereo not given), `CC1(C)CCCN(C(=O)CN2C(=O)C(NC(=O)Nc3cccc(C(=O)OC(C)(C)C)c3)C(=O)N(c3ccccc3F)c3ccccc32)C1` (stereo not given) is lower in melting point: 188 to 190 °C for the first, 170 °C for the second.

Compared with `COc1ccc(-c2ccncc2)cc1-c1ccc(F)c(Cl)c1`, `COc1cc(-c2ccc(C)cc2)c(C(C)=NOCc2ccc([N+](=O)[O-])cc2)cc1O` is lower in melting point: 115 °C for the first, 106 to 109 °C for the second.

Compared with `Ic1ccc(-c2cccnc2)cc1`, `Cn1ccc2ccc(-c3ccc(C(C)(C)C)cc3)cc21` is lower in melting point: 112 to 115 °C for the first, 92 to 94 °C for the second.

First: CCOC(=O)c1ccc(-n2ccnc2)cc1
Second: CCOC(=O)C(CC(=O)c1ccc(Oc2ccc(Cl)cc2)cc1)SC(C)=O (stereo not given)
The melting point of the first is higher: 100 °C for the first, 75.5 to 77 °C for the second.

First: CCCOc1cc(S(C)(=O)=O)ccc1-c1ccc(C#N)c(=O)[nH]1
Second: CCCn1c(=O)n(C)c(=O)c2[nH]c(-c3cc(S(=O)(=O)NCCNC)ccc3OCC)c(Cl)c21
The melting point of the first is higher: 241 to 242 °C for the first, 226 °C for the second.

Compared with `CS(=O)(=O)c1ccc(Oc2ccc(Oc3ccccc3)cc2)nc1`, `O=Cc1ccc(-c2nc(Oc3ccccc3)cc(Oc3ccccc3)n2)cc1` is higher in melting point: 136 to 138 °C for the first, 143 to 145 °C for the second.

First: COC(=O)[C@]1(F)[C@H]2[C@H](O)CC(=O)[C@H]21
Second: O=C1C[C@@H](C(=O)OCc2ccccc2)N(C(=O)OCc2ccccc2)C1
The melting point of the first is higher: 61 to 62 °C for the first, 55 to 56 °C for the second.

Compared with `OC(c1ccccn1)c1cc(F)ccc1F` (stereo not given), `Nc1cc(C(=O)O)cc(S(N)(=O)=O)c1Oc1ccccc1` is higher in melting point: 65 to 66 °C for the first, 252 to 253 °C for the second.

First: COCC1CN(c2ccc(OCCCC3(C)OC(COS(=O)(=O)c4ccc(C)cc4)C(COS(=O)(=O)c4ccc(C)cc4)O3)cc2)C(=O)O1 (stereo not given)
Second: CCOC(=O)Cc1ccc(NCCNC(=O)C2Cc3ccccc3N2S(=O)(=O)c2ccc(-c3cc(C(F)(F)F)ccc3Cl)cc2)cc1 (stereo not given)
The melting point of the first is higher: 104 °C for the first, 55 to 63 °C for the second.

Compared with `O=C(CC(=O)c1ccc(Br)cc1)c1ccc(Br)cc1`, `CCOC(=O)C1=C(C)NC(C)=C(C(=O)OCC)C1c1ccc(Br)cc1` is lower in melting point: 193 to 195 °C for the first, 164 to 165 °C for the second.

First: CCN(CC)CCNC(=O)c1cc(Cl)c(N)cc1OCC(OC)OC
Second: CCCCC(CC)Cn1c(C)cc(C)c(C#N)c1=O (stereo not given)
The melting point of the first is lower: 64 to 67 °C for the first, 84 to 89 °C for the second.

First: O=C1NC(=O)C2(C=Cc3cscc32)N1 (stereo not given)
Second: CS(=O)c1ccc(-c2ccc(C=C(Cl)Cl)s2)cc1 (stereo not given)
The melting point of the first is higher: 241 to 243 °C for the first, 124 to 126 °C for the second.

First: COc1ccccc1CC(=O)N1C[C@@H]2C(=O)CCC(c3ccccc3)(c3ccccc3)[C@@H]2C1 (racemic)
Second: CC(C)(C)OC(=O)N[C@@H](Cc1ccccc1)[C@@H](O)[C@@H](NCc1cccc2ccccc12)C(=O)O
The melting point of the first is lower: 163 °C for the first, 225 to 227 °C for the second.

`COc1cc(C(=O)c2c(-c3ccc(OCCN4CCCC4)cc3)sc3ccc(O)cc23)ccc1CN1CCCC1` and `COCCN1CCc2ccc(Nc3ncc(Cl)c(Nc4ccc(N5CCOCC5)cc4OCCC#N)n3)cc2CC1` cannot be ordered by melting point: 95 to 99 °C for the first, 91 to 96 °C for the second.

Compared with `CCCn1nnc(-c2cnc3ccccn3c2=O)n1`, `CN(c1cccc(-c2ccnc3c(C(=O)c4cccs4)cnn23)c1)S(C)(=O)=O` is higher in melting point: 115 to 116 °C for the first, 169 to 170 °C for the second.

First: COc1c(C(C)(C)C)cc(N2CCCC2=O)cc1C(C)(C)C
Second: CC(=O)C1Oc2c(C(C)(C)C)cc(Cl)cc2C1(C)C (stereo not given)
The melting point of the first is higher: 90 to 91 °C for the first, 76 to 77 °C for the second.

First: CCCc1nc2c(N)nc(C)c(C)c2n1CC1(O)CCC1
Second: CCCCC(=O)c1c(-c2ccc3c(Br)c(OCC(=O)O)ccc3c2)oc2ccc(Cl)cc12
The melting point of the first is higher: 180 to 181 °C for the first, 130 to 132 °C for the second.

First: CC(C)(C)c1csc(N)c1C(N)=O
Second: Nc1cccc(C(=O)O)c1S
The melting point of the first is lower: 145 °C for the first, 255 to 258 °C for the second.

First: C=C(C)c1ccccc1C(=O)O
Second: O=C(CCCO)Nc1cccc(/C=C/c2nc3ccccc3s2)c1
The melting point of the first is lower: 71.6 to 72.5 °C for the first, 191 to 192 °C for the second.

First: COC(=O)c1c(C(=O)OC)c(-c2ccc(OC)cc2)c2c3c(ccc2c1OC)OCO3
Second: CCOC(=O)N=C1NCC(Oc2ccc(C(Cc3cc4cc(C#N)ccc4s3)C(=O)OCC)cc2)CN1 (stereo not given)
The melting point of the first is lower: 166 to 167 °C for the first, 179 to 182 °C for the second.

First: O=S(=O)(NCC1CCOCC1)c1ccc(Cl)cc1
Second: CC(C)(C)OC(=O)N1CCN(c2ccc(-c3[nH]nc4c3C(=O)c3c(NC(=O)NN5CCOCC5)cccc3-4)cc2)CC1
The melting point of the first is lower: 118 to 119 °C for the first, 242 °C for the second.

First: CN(C)C(=N[N+](=O)[O-])N(C)Cc1ccc(Cl)nc1
Second: CC(C)c1ccc(N(Cc2cn[nH]c2)C(=O)C2CCCc3c(O)cccc32)cc1 (stereo not given)
The melting point of the first is lower: 99 to 101 °C for the first, 247 °C for the second.

First: N#Cc1cnc2n(c1=O)CCC2
Second: Cc1nc(NC(=O)c2cnn3c(C(F)(F)F)cc(-c4ccc(C(F)(F)F)c(Cl)c4)nc23)sc1S(=O)(=O)NC(C)(C)CO
The melting point of the first is lower: 119 to 121 °C for the first, 274 °C for the second.
